Results taken from the supplement of paper PMC10307832.

How the values were obtained:
Assay in all cases: relative viability (nuclei count vs DMSO), 5 days (fraction); higher = more cells survive
Kobe2602 + Tozasertib = compound: C1=CC(=CC=C1NC(=S)NNC2=C(C=C(C=C2[N+](=O)[O-])C(F)(F)F)[N+](=O)[O-])F [Kobe2602] + Cc1cc(Nc2cc(N3CCN(C)CC3)nc(Sc3ccc(NC(=O)C4CC4)cc3)n2)n[nH]1 [Tozasertib] (partner 0.1 µM)
Procedure, shortened: (§1)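 Nuclei were stained with Hoechst during a one-step fixation (final 0.05% Triton X-100, 1% formaldehyde, 1 ug/ml Hoechst) carried out 5 days after dosing, then counted on 4× images. The cells, lung cancer lines in 1536-well plates, had been dosed by pin tool the day after seeding with one drug alone or a fixed anchor-drug dose plus five library-drug doses (not always all listed) in √10 steps. Relative viability is the nuclei count in treated wells divided by that in vehicle wells, and each value is the median of duplicate plates.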

Cabozantinib + OSI-027 = compound: COc1cc2nccc(Oc3ccc(NC(=O)C4(C(=O)Nc5ccc(F)cc5)CC4)cc3)c2cc1OC [Cabozantinib] + COc1cccc2cc(-c3nc([C@H]4CC[C@H](C(=O)O)CC4)n4ncnc(N)c34)[nH]c12 [OSI-027] (partner 0.5 µM)
Procedure, shortened: as §1

Zosuquidar + Pictilisib = compound: O[C@@H](COc1cccc2ncccc12)CN1CCN([C@@H]2c3ccccc3[C@@H]3[C@H](c4ccccc42)C3(F)F)CC1 [Zosuquidar] + CS(=O)(=O)N1CCN(Cc2cc3nc(-c4cccc5[nH]ncc45)nc(N4CCOCC4)c3s2)CC1 [Pictilisib] (partner 1 µM)
Procedure, shortened: as §1

Zosuquidar + Vorinostat = compound: O[C@@H](COc1cccc2ncccc12)CN1CCN([C@@H]2c3ccccc3[C@@H]3[C@H](c4ccccc42)C3(F)F)CC1 [Zosuquidar] + O=C(CCCCCCC(=O)Nc1ccccc1)NO [Vorinostat] (partner 1 µM)
Procedure, shortened: as §1

Cell Line	relative viability (Kobe2602 + Tozasertib; first compound 0.2 µM)	relative viability (Kobe2602 + Tozasertib; first compound 0.6325 µM)	relative viability (Kobe2602 + Tozasertib; first compound 2 µM)	relative viability (Kobe2602 + Tozasertib; first compound 6.325 µM)	relative viability (Kobe2602 + Tozasertib; first compound 20 µM)	relative viability (Cabozantinib + OSI-027; first compound 0.06325 µM)	relative viability (Cabozantinib + OSI-027; first compound 0.2 µM)	relative viability (Cabozantinib + OSI-027; first compound 0.6325 µM)	relative viability (Cabozantinib + OSI-027; first compound 2 µM)	relative viability (Zosuquidar + Pictilisib; first compound 0.01 µM)	relative viability (Zosuquidar + Pictilisib; first compound 0.03162 µM)	relative viability (Zosuquidar + Pictilisib; first compound 0.3162 µM)	relative viability (Zosuquidar + Pictilisib; first compound 1 µM)	relative viability (Zosuquidar + Vorinostat; first compound 0.01 µM)	relative viability (Zosuquidar + Vorinostat; first compound 0.3162 µM)	relative viability (Zosuquidar + Vorinostat; first compound 1 µM)	relative viability (Cabozantinib + OSI-027; first compound 0.02 µM)	relative viability (Zosuquidar + Pictilisib; first compound 0.1 µM)	relative viability (Zosuquidar + Vorinostat; first compound 0.03162 µM)	relative viability (Zosuquidar + Vorinostat; first compound 0.1 µM)
HCC-78	0.428	0.413	0.369	0.314	0.525	0.439	0.287	0.291	0.258	0.211	0.235	0.232	0.402	0.465	0.512	0.402	–	–	–	–
HCC-366	0.0819	0.0969	0.0807	0.0437	0.0481	1.03	0.951	0.795	0.778	0.154	0.185	0.151	0.195	0.309	0.897	0.352	0.753	0.15	0.424	0.342
HCC-827	0.444	0.448	0.391	0.416	0.425	0.861	–	0.679	0.526	1.08	1.14	1.05	0.994	0.761	0.849	0.999	0.782	0.774	0.786	0.714
HOP-62	0.399	0.359	0.418	0.341	0.335	0.915	0.781	0.829	0.781	0.684	0.86	0.81	0.831	0.528	0.836	0.593	0.825	0.579	0.624	0.585
IA-LM	–	–	–	–	–	–	–	–	–	0.306	0.394	0.315	0.324	1.07	1.07	1.04	–	0.342	0.967	–
LC-2-ad	0.478	0.534	0.489	0.453	0.472	0.933	0.74	0.839	0.729	0.386	0.566	0.493	0.524	0.681	0.683	0.674	–	0.41	0.774	0.722
LCLC-97TM1	0.219	0.292	0.175	0.186	0.196	0.572	0.448	0.57	0.689	0.203	0.219	0.192	0.226	0.663	0.73	0.777	0.153	–	0.929	–
LCLC-103H	0.498	0.535	0.469	0.436	0.479	0.561	0.487	0.509	0.394	0.541	0.569	0.607	0.737	0.754	0.848	0.803	0.344	0.542	0.771	0.598
LK-2	0.174	0.188	0.189	0.174	0.174	0.193	0.211	0.229	0.225	0.625	0.529	0.59	0.53	0.232	0.298	0.335	0.158	0.576	0.311	0.283
LOU-NH91	0.703	0.703	0.658	0.685	0.739	0.744	–	0.652	0.704	0.536	0.572	0.543	0.516	0.854	0.941	0.919	0.65	0.482	0.917	0.772
LU99A	0.287	0.323	0.286	0.237	0.298	0.298	0.274	0.31	0.311	0.252	0.275	0.327	0.4	0.476	0.618	0.544	0.231	0.354	0.423	0.463
LXF-289	0.192	0.191	0.181	0.203	0.185	0.856	0.753	0.816	0.78	0.767	0.776	0.818	0.781	0.727	0.788	0.78	0.612	0.747	0.759	0.72
NCI-H522	0.68	0.644	0.552	0.592	0.568	0.79	0.7	0.766	0.767	–	–	–	–	0.909	0.887	0.871	0.585	–	0.796	0.927
NCI-H1299	–	–	–	–	–	–	–	–	–	0.623	0.836	0.796	0.861	–	–	–	–	0.968	–	–
NCI-H1563	–	–	–	–	–	0.743	0.757	0.718	0.684	0.596	0.632	0.664	0.661	–	–	–	0.762	0.622	–	–
NCI-H1623	0.42	0.433	0.396	0.439	0.412	0.483	0.38	0.414	0.436	–	–	–	–	–	–	–	0.392	–	–	–
NCI-H1648	0.465	0.43	0.468	0.513	0.393	0.256	0.278	0.281	0.266	–	–	–	–	0.423	0.387	0.434	0.255	–	0.422	0.242
NCI-H1703	–	–	–	–	–	–	–	–	–	0.239	0.238	0.233	0.238	–	–	–	–	0.244	–	–
NCI-H1792	–	–	–	–	–	0.75	0.697	0.664	0.531	0.355	0.267	0.311	0.335	–	–	–	–	0.243	–	–
NCI-H2342	0.575	0.546	0.408	0.491	0.542	0.723	0.563	0.621	0.613	–	–	–	–	0.753	0.813	0.81	0.543	–	0.807	0.686
SW 900	0.561	0.621	0.458	0.379	0.512	0.695	0.637	0.554	0.376	–	–	–	–	0.431	0.567	0.527	0.637	–	0.464	–
